According to US20230263757A1, “DISINFECTING WIPE KIT FOR CENTRAL VENOUS ACCESS DEVICES” (SterileCare Inc., priority 2022, published 2023):
Structures can show the parent of a compound that is named as a salt. Where two headings read alike, the source gives them in different places.

Columns and labels:
C. albicans ON47 = experiment: Checkerboard, FMCI; format: cell-based, Candida albicans
Experimental: (§1) An assay was made using a minimum inhibitory concentration (MIC) and minimum bactericidal concentration (MBC) and minimum fungicidal concentration (MFC) determination. The MIC was determined by the micro broth dilution method in 96-well plates. Serial two-fold dilutions of tetrasodium EDTA (from 2% to 0.015%), ethanol (from 50% to 0.1%) and chlorhexidine HCl (from 100 μg/mL to 0.025 μg/mL) were prepared in MH broth with a final volume of 90 μL per well. A 10 μL containing 1×10^5 bacterial cells or 2×10^3 fungal cells were added to each well. The inoculated plates were covered with a lid, sealed with Parafilm, and incubated for 24 h at 37° C. with slight rocking on a tilting platform shaker. After incubation, the optical density at 600 nm (OD 600) of the cultures in each well was measured using an xMark™ Microplate Absorbance Spectrophotometer (Bio-Rad). […] MBCs and MFCs were determined by transferring 100 μL from each well with no apparent growth onto appropriate agar plates, followed by incubation for 24 h at 37° C.
(§2) A fourth composition and solution included tetrasodium EDTA with ethanol or chlorhexidine HCl. This fourth composition and solution were created using checkerboard titration methods using micro broth dilution in 96-well microtiter plates. The concentrations of antimicrobials used were based on previously determined MIC values. Briefly, 200 μL, of two-fold dilutions of tetrasodium EDTA and ethanol or chlorhexidine HCl were prepared in MH or MH II broth with standardized cell suspension. […] Microtiter plates were incubated at 37° C. for 24 h, and the results were analyzed. Each test was performed in duplicate and included a growth control without adding any antimicrobials.

Proteus mirabilis ON153 [1] = experiment: FBEC index, checkerboard on biofilms; format: cell-based
Experimental: (§3) In step (4), microtiter plates are incubated at 37° C. for 24 h. then (6), after incubation, the bacterial and fungal cells were dislodged from the pegs into the recovery medium described above.
(§4) Three 10-μL aliquots, for a total of 30 μL from each well of recovery medium, were spotted on MH agar plates and incubated for 24 h at 37° C. […] The FBEC determination is a modification of the FICI.

Escherichia coli SK2 = experiment: FBEC index, checkerboard on biofilms; format: cell-based
Experimental: as §3, §4

MRSA ON184 [2] = experiment: MBEC assay, 48-h biofilm, 24 h exposure; format: cell-based, S. aureus
Experimental: A biofilm cultivation cell composition was provided. This fifth composition was created using an MBEC Assay® biofilm inoculator, consisting of a polystyrene lid with 96 downward-protruding pegs and a corresponding base used to grow biofilms. A standardized inoculum was diluted in an appropriate biofilm growth medium to achieve a viable cell count of 1.5×10^6 CFU/mL of bacterial cells or 5×10^5 CFU/mL of fungal cells. Then, 150 μL of this inoculum was transferred into each appropriate well, and the peg lids were inserted into the microtiter plates. The plates were sealed with Parafilm and were incubated at optimum temperature for 48 h with slight rocking for bacteria and shaking at 200 rpm for fungal strains. After incubation, the peg lid was removed from the base and rinsed twice with sterile phosphate-buffered saline (PBS) for 2 min to remove loosely attached non-sessile cells. Before the antimicrobial challenge, the pegs in column 1 (n=8) were considered the biofilm growth control; these pegs were removed from the lids, placed into 200 μL of recovery medium, and analyzed for starting biofilm cell numbers as described below. The rinsed pegs were placed into new 96-well plates containing two-fold dilutions of antimicrobials such as tetrasodium EDTA (4%-0.0125%), ethanol (100%-0.2%), and chlorhexidine HCl (100 μg/mL-0.4 μg/mL) in 200 μL of suitable biofilm growth medium per well and incubated at optimum temperature for 24 h. After the antimicrobial challenge, the pegs were rinsed twice with sterile PBS for 2 min and placed into a new 96-well plate containing 200 μL of recovery medium. The recovery plates were sealed with Parafilm, and biofilm cells were dislodged from the pegs by sonication for 30 min with a Branson 3510 bath sonicator. The biofilm cells in the recovery medium were serially diluted, and a drop dilution assay was performed to enumerate the viable cells. MBEC values were determined as the minimum concentration of antimicrobials that yielded a viable cell count at or lower than the 125 CFU/mL detection limit.

[3] = test system: Pseudomonas aeruginosa SK1; experiment: FBEC index, checkerboard on biofilms; format: cell-based
Experimental: as §3, §4

MRSA ON184 [4] = experiment: MIC, micro broth dilution; format: cell-based, S. aureus; settings: alone
Experimental: as §1

S. epidermidis SK9 = experiment: Checkerboard titration, FICI; format: cell-based, Staphylococcus epidermidis
Experimental: as §2

MRSA ON184 [5] = experiment: Checkerboard, FMCI; format: cell-based, S. aureus
Experimental: as §1, §2

E. coli SK2 = experiment: Checkerboard, FMCI; format: cell-based, Escherichia coli
Experimental: as §1, §2

[6] = test system: Staphylococcus aureus ON89; experiment: Checkerboard, FMCI; format: cell-based
Experimental: as §1, §2

[7] = test system: Stenotrophomonas maltophilia ON17; experiment: Checkerboard, FMCI; format: cell-based
Experimental: as §1, §2

Serratia marcescens SK2 [8] = experiment: Checkerboard, FMCI; format: cell-based
Experimental: as §1, §2

Proteus mirabilis ON153 [9] = experiment: Checkerboard, FMCI; format: cell-based
Experimental: as §1, §2

Candida albicans SK4b [10] = experiment: Checkerboard, FMCI; format: cell-based
Experimental: as §1, §2

Escherichia coli ON29 [11] = experiment: Checkerboard, FMCI; format: cell-based
Experimental: as §1, §2

[12] = test system: Pseudomonas aeruginosa SK1; experiment: Checkerboard, FMCI; format: cell-based
Experimental: as §1, §2

[13] = test system: Staphylococcus epidermidis ON170; experiment: Checkerboard, FMCI; format: cell-based
Experimental: as §1, §2

[14] = test system: Staphylococcus aureus ON89; experiment: Checkerboard titration, FICI; format: cell-based
Experimental: as §2

[15] = test system: Stenotrophomonas maltophilia ON17; experiment: Checkerboard titration, FICI; format: cell-based
Experimental: as §2

Serratia marcescens SK2 [16] = experiment: Checkerboard titration, FICI; format: cell-based
Experimental: as §2

Proteus mirabilis ON153 [17] = experiment: Checkerboard titration, FICI; format: cell-based
Experimental: as §2

Candida albicans SK4b [18] = experiment: Checkerboard titration, FICI; format: cell-based
Experimental: as §2

Escherichia coli ON29 [19] = experiment: Checkerboard titration, FICI; format: cell-based
Experimental: as §2

[20] = test system: Pseudomonas aeruginosa SK1; experiment: Checkerboard titration, FICI; format: cell-based
Experimental: as §2

[21] = test system: Staphylococcus epidermidis ON170; experiment: Checkerboard titration, FICI; format: cell-based
Experimental: as §2

## [H]/N=C(\N/C(=N/[H])NCCCCCCNC(=N)NC(=N)Nc1ccc(Cl)cc1)Nc1ccc(Cl)cc1 [Chlorhexidine HCl, 1,6-bis(4′-chlorophenylbiguanide) hexane]
C. albicans ON47; EDTA + chlorhexidine HCl
  Chlorhexidine HCl microbicidal concentration in combination: 1.6 µg/mL
Proteus mirabilis ON153 [1]; EDTA + chlorhexidine HCl
  Chlorhexidine HCl biofilm eradication concentration in combination (FBEC): 3.125 µg/mL
Escherichia coli SK2; EDTA + chlorhexidine HCl
  Chlorhexidine HCl biofilm eradication concentration in combination (FBEC): 3.125 µg/mL
MRSA ON184 [2]
  MBEC: 50 µg/mL
[3]; EDTA + chlorhexidine HCl
  Chlorhexidine HCl biofilm eradication concentration in combination (FBEC): 3.125 µg/mL
MRSA ON184 [4]; Staphylococcus aureus, read-out: MIC
  MIC: 0.2 µg/mL
S. epidermidis SK9; EDTA + chlorhexidine HCl
  Chlorhexidine HCl concentration in combination: 0.025 µg/mL
MRSA ON184 [5]; EDTA + chlorhexidine HCl
  Chlorhexidine HCl microbicidal concentration in combination: 0.4 µg/mL
E. coli SK2; EDTA + chlorhexidine HCl
  Chlorhexidine HCl microbicidal concentration in combination: 0.2 µg/mL
[6]; EDTA + chlorhexidine HCl
  Chlorhexidine HCl microbicidal concentration in combination: 0.2 µg/mL
[7]; EDTA + chlorhexidine HCl
  Chlorhexidine HCl microbicidal concentration in combination: 0.4 µg/mL
Serratia marcescens SK2 [8]; EDTA + chlorhexidine HCl
  Chlorhexidine HCl microbicidal concentration in combination: 1.6 µg/mL
Proteus mirabilis ON153 [9]; EDTA + chlorhexidine HCl
  Chlorhexidine HCl microbicidal concentration in combination: 1.6 µg/mL
Candida albicans SK4b [10]; EDTA + chlorhexidine HCl
  Chlorhexidine HCl microbicidal concentration in combination: 0.8 µg/mL
Escherichia coli ON29 [11]; EDTA + chlorhexidine HCl
  Chlorhexidine HCl microbicidal concentration in combination: 0.2 µg/mL
[12]; EDTA + chlorhexidine HCl
  Chlorhexidine HCl microbicidal concentration in combination: 1.6 µg/mL
[13]; EDTA + chlorhexidine HCl
  Chlorhexidine HCl microbicidal concentration in combination: 0.4 µg/mL
[14]; EDTA + chlorhexidine HCl
  Chlorhexidine HCl concentration in combination: 0.1 µg/mL
[15]; EDTA + chlorhexidine HCl
  Chlorhexidine HCl concentration in combination: 0.2 µg/mL
Serratia marcescens SK2 [16]; EDTA + chlorhexidine HCl
  Chlorhexidine HCl concentration in combination: 1.5 µg/mL
Proteus mirabilis ON153 [17]; EDTA + chlorhexidine HCl
  Chlorhexidine HCl concentration in combination: 0.8 µg/mL
Candida albicans SK4b [18]; EDTA + chlorhexidine HCl
  Chlorhexidine HCl concentration in combination: 0.8 µg/mL
Escherichia coli ON29 [19]; EDTA + chlorhexidine HCl
  Chlorhexidine HCl concentration in combination: 0.2 µg/mL
[20]; EDTA + chlorhexidine HCl
  Chlorhexidine HCl concentration in combination: 0.8 µg/mL
[21]; EDTA + chlorhexidine HCl
  Chlorhexidine HCl concentration in combination: 0.05 µg/mL

## O=C([O-])CN(CCN(CC(=O)[O-])CC(=O)[O-])CC(=O)[O-].[Na+].[Na+].[Na+].[Na+] [EDTA, tetrasodium EDTA]
C. albicans ON47; EDTA + chlorhexidine HCl
  EDTA microbicidal concentration in combination: 0.031 % w/v
C. albicans ON47; EDTA + ethanol
  microbicidal concentration in combination: 0.25 % w/v
Proteus mirabilis ON153 [1]; EDTA + chlorhexidine HCl
  EDTA biofilm eradication concentration in combination (FBEC): 0.125 % w/v
Proteus mirabilis ON153 [1]; EDTA + ethanol
  biofilm eradication concentration in combination (FBEC): 0.125 % w/v
Escherichia coli SK2; EDTA + chlorhexidine HCl
  EDTA biofilm eradication concentration in combination (FBEC): 0.031 % w/v
Escherichia coli SK2; EDTA + ethanol
  biofilm eradication concentration in combination (FBEC): 0.125 % w/v
MRSA ON184 [2]
  MBEC: 2 % w/v
[3]; EDTA + chlorhexidine HCl
  EDTA biofilm eradication concentration in combination (FBEC): 0.25 % w/v
[3]; EDTA + ethanol
  biofilm eradication concentration in combination (FBEC): 0.125 % w/v
MRSA ON184 [4]
  MIC: 0.063 % w/v
S. epidermidis SK9; EDTA + chlorhexidine HCl
  EDTA concentration in combination: 0.015 % w/v
S. epidermidis SK9; EDTA + ethanol
  concentration in combination: 0.015 % w/v
MRSA ON184 [5]; EDTA + chlorhexidine HCl
  EDTA microbicidal concentration in combination: 0.125 % w/v
MRSA ON184 [5]; EDTA + ethanol
  microbicidal concentration in combination: 0.031 % w/v
E. coli SK2; EDTA + chlorhexidine HCl
  EDTA microbicidal concentration in combination: 0.015 % w/v
E. coli SK2; EDTA + ethanol
  microbicidal concentration in combination: 0.25 % w/v
[6]; EDTA + chlorhexidine HCl
  EDTA microbicidal concentration in combination: 0.008 % w/v
[6]; EDTA + ethanol
  microbicidal concentration in combination: 0.25 % w/v
[7]; EDTA + chlorhexidine HCl
  EDTA microbicidal concentration in combination: 0.031 % w/v
[7]; EDTA + ethanol
  microbicidal concentration in combination: 0.125 % w/v
Serratia marcescens SK2 [8]; EDTA + chlorhexidine HCl
  EDTA microbicidal concentration in combination: 0.125 % w/v
Serratia marcescens SK2 [8]; EDTA + ethanol
  microbicidal concentration in combination: 0.25 % w/v
Proteus mirabilis ON153 [9]; EDTA + chlorhexidine HCl
  EDTA microbicidal concentration in combination: 0.125 % w/v
Proteus mirabilis ON153 [9]; EDTA + ethanol
  microbicidal concentration in combination: 0.063 % w/v
Candida albicans SK4b [10]; EDTA + chlorhexidine HCl
  EDTA microbicidal concentration in combination: 0.125 % w/v
Candida albicans SK4b [10]; EDTA + ethanol
  microbicidal concentration in combination: 0.25 % w/v
Escherichia coli ON29 [11]; EDTA + chlorhexidine HCl
  EDTA microbicidal concentration in combination: 0.008 % w/v
Escherichia coli ON29 [11]; EDTA + ethanol
  microbicidal concentration in combination: 0.25 % w/v
[12]; EDTA + chlorhexidine HCl
  EDTA microbicidal concentration in combination: 0.031 % w/v
[12]; EDTA + ethanol
  microbicidal concentration in combination: 0.031 % w/v
[13]; EDTA + chlorhexidine HCl
  EDTA microbicidal concentration in combination: 0.25 % w/v
[13]; EDTA + ethanol
  microbicidal concentration in combination: 0.031 % w/v
[14]; EDTA + chlorhexidine HCl
  EDTA concentration in combination: 0.008 % w/v
[14]; EDTA + ethanol
  concentration in combination: 0.015 % w/v
[15]; EDTA + chlorhexidine HCl
  EDTA concentration in combination: 0.015 % w/v
[15]; EDTA + ethanol
  concentration in combination: 0.031 % w/v
Serratia marcescens SK2 [16]; EDTA + chlorhexidine HCl
  EDTA concentration in combination: 0.063 % w/v
Serratia marcescens SK2 [16]; EDTA + ethanol
  concentration in combination: 0.5 % w/v
Proteus mirabilis ON153 [17]; EDTA + chlorhexidine HCl
  EDTA concentration in combination: 0.063 % w/v
Proteus mirabilis ON153 [17]; EDTA + ethanol
  concentration in combination: 0.5 % w/v
Candida albicans SK4b [18]; EDTA + chlorhexidine HCl
  EDTA concentration in combination: 0.063 % w/v
Candida albicans SK4b [18]; EDTA + ethanol
  concentration in combination: 0.25 % w/v
Escherichia coli ON29 [19]; EDTA + chlorhexidine HCl
  EDTA concentration in combination: 0.008 % w/v
Escherichia coli ON29 [19]; EDTA + ethanol
  concentration in combination: 0.25 % w/v
[20]; EDTA + chlorhexidine HCl
  EDTA concentration in combination: 0.5 % w/v
[20]; EDTA + ethanol
  concentration in combination: 0.031 % w/v
[21]; EDTA + chlorhexidine HCl
  EDTA concentration in combination: 0.063 % w/v
[21]; EDTA + ethanol
  concentration in combination: 0.015 % w/v
